The results in this text go back to PMC6158189, “A pharmacological probe identifies cystathionine β-synthase as a new negative regulator for ferroptosis” (Cell Death & Disease, 2018).

The test system of test [1] is HEK293T cells. Briefly: cell viability (CellTiter 96 Aqueous One). The note with it: 24 h. Type of test: cell-based. Here is the method:
Fig. 4 CH004 arrests the cell cycle at the S phase. a CH004 reduces the cell viability of HEK293T and HepG2 cells. HEK293T or HepG2 cells were treated with indicated concentrations of CH004 for 24 h before the cell number was analyzed using the CellTiter96® Aqueous One Solution Cell Proliferation Assay (Promega, Materials and Methods). The means at each concentration of one representative experiment are shown as percentages of DMSO (control, 100%). Means ± SDs (n = 3). b Overexpression of hCBS or knock-down of hCBS counteracts the growth inhibition exerted by CH004 in HEK293T cells. Indicated HEK293T stable cell lines were treated with the CH004 or DMSO for 24 h. Then, the cell viability was quantified with the CellTiter 96® Aqueous One Solution Cell Proliferation Assay under the standard protocol (Promega). […] The efficacy for CBS overexpression and knock-down in HEK293T cells was determined by Western blotting using an anti-CBS antibody (3E1, 1:2000; Abnova). c CH004 induces cell death in HEK293T and HepG2 cells. […] HEK293T cells were incubated with indicated compounds for 12 h, and the DNA content was quantified with propidium iodide to analyze the cell cycle distribution by flow cytometry (e). The cell cycle distributions for HEK293T-shNT and HEK293T-shCBS cells were accordingly analyzed and are shown in f. […]

Test [2] has as its system HEK293T cells. In words: intracellular ROS (DCFH-DA, flow cytometry). The note with it: 12 h. Type of test: cell-based. The method, then:
Fig. 5 In situ reduction of CBS activity and H2S in mitochondria by CH004 is coupled with an increase of intracellular ROS. a, b CH004 dose-dependently elevates ROS levels in both HepG2 (a) and HEK293T cells (b). The cells were treated with CH004 for 12 h or with 1 mM H2O2 for 30 min before the staining with DCFH-DA (Molecular Probes) and the analyzsis by flow cytometry (“Materials and Methods” section). Means ± SDS (n = 3). […] HepG2 cells were incubated with indicated inhibitors for 8 h before staining with the mitochondria tracker Mito-tracker® Green (Invitrogen) and the AzMC probe. Cyan represents the colocalization of H2S (blue) and the mitochondria tracker (green). Bars: 50 μm. d hCBS co-localizes with the mitochondria in HepG2 and HEK293T cells. HepG2 and HEK293T cells were stained with an anti-CBS antibody (3E1, 1:200; Abnova) for hCBS (red), Mito-tracker® Green for the mitochondria (green) and DAPI for the nucleus (blue). […]
To investigate the intracellular ROS levels, HEK293T or HepG2 cells were seeded in 6-well plates for one day, then incubated with the indicated inhibitors and 1 mM H2O2 for 12 h and 30 min, respectively. After trypsinization and one wash in PBS, the collected cells were resuspended in PBS and incubated with 100 μM probe DCFH-DA for 30 min at 37 °C before being analyzed using an LSR Fortessa flow cytometer.
(In general: In flow cytometry, cells or beads pass a laser one at a time.)

Broadly, the IC50 is the concentration needed to halve the response being measured. A lower IC50 goes with higher potency. Turning to `Cn1nc(Cc2ccccc2)nc2c(=O)n(C)c(=O)nc1-2` [CH004, 3-benzyl-1,6-dimethylpyrimido[5,4-e][1,2,4]triazine-5,7(1H,6H)-dione], the IC50 in test [1] is ~17 µM; in test [1] (Homo sapiens, HEK-293T), 16.6 ± 5.3 µM. For the same compound, in test [2], the “maximum increase of cellular ROS” value was ~ 2 fold.
